The values that follow come from article PMC12250084 (International Journal of Molecular Sciences, 2025).

The target in one test is S protein of HCoV-229E (Human coronavirus 229E, UniProt P15423). The experiment in a line: SPR, Reichert4, CM5 chip, protein immobilised. In kind it is binding.
Another test has as its target S protein of HCoV-OC43 (Human coronavirus OC43, UniProt P36334). Kind of test: SPR, Reichert4, CM5 chip, protein immobilised. In kind it is binding.

The structures appear in SMILES notation.

S protein of HCoV-229E, sequence (P15423 16-1173): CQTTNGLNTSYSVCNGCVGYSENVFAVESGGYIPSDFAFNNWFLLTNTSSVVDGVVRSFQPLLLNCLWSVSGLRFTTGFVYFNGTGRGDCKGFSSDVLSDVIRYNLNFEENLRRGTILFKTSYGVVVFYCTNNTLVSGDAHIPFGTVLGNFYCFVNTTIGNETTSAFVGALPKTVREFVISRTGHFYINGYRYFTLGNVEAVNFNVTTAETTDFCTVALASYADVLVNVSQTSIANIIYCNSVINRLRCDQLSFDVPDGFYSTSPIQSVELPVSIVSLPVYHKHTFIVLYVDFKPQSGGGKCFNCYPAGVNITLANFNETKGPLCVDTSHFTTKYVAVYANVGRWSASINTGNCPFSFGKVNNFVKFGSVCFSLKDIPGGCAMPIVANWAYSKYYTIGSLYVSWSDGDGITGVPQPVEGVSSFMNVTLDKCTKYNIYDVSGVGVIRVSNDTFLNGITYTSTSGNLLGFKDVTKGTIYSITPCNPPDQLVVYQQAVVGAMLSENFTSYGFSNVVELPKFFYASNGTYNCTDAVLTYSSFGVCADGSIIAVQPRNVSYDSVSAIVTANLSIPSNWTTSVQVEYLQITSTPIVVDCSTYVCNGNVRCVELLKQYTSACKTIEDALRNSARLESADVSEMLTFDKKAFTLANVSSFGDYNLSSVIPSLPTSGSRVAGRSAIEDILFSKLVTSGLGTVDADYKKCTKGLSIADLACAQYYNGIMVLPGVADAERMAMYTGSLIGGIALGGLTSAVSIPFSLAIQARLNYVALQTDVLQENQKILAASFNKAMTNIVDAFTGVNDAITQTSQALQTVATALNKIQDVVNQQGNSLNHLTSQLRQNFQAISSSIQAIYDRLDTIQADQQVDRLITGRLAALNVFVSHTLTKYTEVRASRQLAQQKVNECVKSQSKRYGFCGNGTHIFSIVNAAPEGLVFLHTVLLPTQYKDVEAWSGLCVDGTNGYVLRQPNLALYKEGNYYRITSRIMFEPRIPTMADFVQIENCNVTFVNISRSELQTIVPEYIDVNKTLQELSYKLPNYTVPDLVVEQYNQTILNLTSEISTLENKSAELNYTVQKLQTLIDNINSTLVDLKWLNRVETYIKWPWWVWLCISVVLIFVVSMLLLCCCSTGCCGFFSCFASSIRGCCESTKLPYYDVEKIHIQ
S protein of HCoV-OC43, sequence (P36334 14-1353): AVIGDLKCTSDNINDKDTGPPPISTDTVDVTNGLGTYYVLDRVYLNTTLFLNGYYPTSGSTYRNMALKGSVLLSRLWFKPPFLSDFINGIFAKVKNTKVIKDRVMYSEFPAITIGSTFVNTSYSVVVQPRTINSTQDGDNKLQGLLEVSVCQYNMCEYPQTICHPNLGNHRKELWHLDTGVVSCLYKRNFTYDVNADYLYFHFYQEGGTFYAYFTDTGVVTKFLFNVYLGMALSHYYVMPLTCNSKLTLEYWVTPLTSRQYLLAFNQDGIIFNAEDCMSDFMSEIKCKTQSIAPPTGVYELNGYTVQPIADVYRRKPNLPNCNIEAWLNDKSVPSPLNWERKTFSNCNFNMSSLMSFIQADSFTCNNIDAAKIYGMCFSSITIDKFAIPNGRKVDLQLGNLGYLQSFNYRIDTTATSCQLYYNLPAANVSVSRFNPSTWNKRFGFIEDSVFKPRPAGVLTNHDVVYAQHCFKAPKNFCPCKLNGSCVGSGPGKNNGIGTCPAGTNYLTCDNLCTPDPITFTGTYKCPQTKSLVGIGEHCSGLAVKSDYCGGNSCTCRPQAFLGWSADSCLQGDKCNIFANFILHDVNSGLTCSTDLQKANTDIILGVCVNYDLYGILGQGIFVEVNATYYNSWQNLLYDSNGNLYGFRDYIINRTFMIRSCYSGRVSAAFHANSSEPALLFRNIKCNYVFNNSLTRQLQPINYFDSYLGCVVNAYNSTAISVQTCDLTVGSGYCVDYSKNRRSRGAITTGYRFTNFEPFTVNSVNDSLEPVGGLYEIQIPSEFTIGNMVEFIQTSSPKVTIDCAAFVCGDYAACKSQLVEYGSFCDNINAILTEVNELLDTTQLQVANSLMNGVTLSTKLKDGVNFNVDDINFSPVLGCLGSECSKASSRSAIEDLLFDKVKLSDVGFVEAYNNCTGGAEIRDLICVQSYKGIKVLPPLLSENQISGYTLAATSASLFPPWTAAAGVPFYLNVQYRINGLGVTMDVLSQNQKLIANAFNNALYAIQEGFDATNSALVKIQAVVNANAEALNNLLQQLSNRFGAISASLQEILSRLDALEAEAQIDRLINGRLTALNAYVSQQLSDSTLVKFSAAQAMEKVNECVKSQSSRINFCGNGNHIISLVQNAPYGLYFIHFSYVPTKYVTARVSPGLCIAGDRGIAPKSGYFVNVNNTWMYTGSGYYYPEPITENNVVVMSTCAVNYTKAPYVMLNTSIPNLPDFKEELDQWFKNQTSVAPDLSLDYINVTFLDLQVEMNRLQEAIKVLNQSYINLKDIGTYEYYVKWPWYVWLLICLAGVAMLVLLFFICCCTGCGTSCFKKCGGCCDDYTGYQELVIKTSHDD

Turning to `CC1(C)[C@@H](O[C@H]2O[C@H](C(=O)O)[C@@H](O)[C@H](O)[C@H]2O[C@@H]2O[C@H](C(=O)O)[C@@H](O)[C@H](O)[C@H]2O)CC[C@]2(C)[C@H]3C(=O)C=C4[C@@H]5C[C@@](C)(C(=O)O)CC[C@]5(C)CC[C@@]4(C)[C@]3(C)CC[C@@H]12` [Diammonium glycyrrhizinate], the Kd on S protein of HCoV-229E is 37.9 µM; on S protein of HCoV-OC43, 5.76 µM.
